# Laboratory results as given in US12466800B2, “N-((1,2,3,5,6,7-hexahydro-S-indacen-4-yl)carbamoyl)-4, 5, 6, 7-tetrahydrobenzofuran-2-sulfonamide derivatives and related compounds as NLPR3 modulators for the treatment of multiple sclerosis (MS)” (Zomagen Biosciences Ltd, priority 2019, dated 2025).
# pIC50: −log10 of the molar value.
# Test system: IL-1b
# Experiment: Mouse BMDM IL-1b Assay
# Format: cell-based
# Conditions: Macrophage; mouse bone marrow derived macrophages (C57BL6); 200 ng/mL LPS 3 h, compound 30 min, 5 mM ATP 45 min; IL-1b ELISA of supernatant
# Procedure: Example 20: Mouse BMDM IL-1b Assay
# Mouse bone marrow cells from C57BL6 tibia and femur were culture in complete Isocov's Media supplemented with 20 ng/mL MCSF (BMDM media) at a density of 50 million cells/15 cm Petri dish. Fresh media was changed every 3 days, and bone marrow derived macrophages were collected, washed, and counted on day 7. Cells were seeded into 96 well plates at a density of 5×10^4 cells per well in 100 uL of BMDM media and cultured overnight. The cells were stimulated at 37° C. with 200 ng/mL Ultrapure LPS-B5 for 3 hours before pre-diluted compounds were added. 30 minutes after compound addition, 5 mM ATP was added for the secondary stimulation for 45 minutes. After stimulation, the plates were briefly spun down, and 50 uL of supernatant was harvested from each well. ELISA for mouse IL-1b was performed with 1:10 and 1:100 diluted supernatant using pre-coated kits. IL-1b concentrations were calculated based on pre-titrated standards, and compound inhibition IC50 is generated using the Levenberg Marquardt damped lease-square method.
row,pIC50,SMILES
1,> 7.00,"CC1(O)CCCc2oc(S(=O)(=O)NC(=O)Nc3c4c(cc5c3CCC5)CCC4)cc21 (stereo not shown) [Compound 5, N-((1,2,3,5,6,7-hexahydro-s-indacen-4-yl)carbamoyl)-4-hydroxy-4-methyl-4,5,6,7-tetrahydrobenzofuran-2-sulfonamide]"
2,> 7.00,"CC1(O)CCCCc2oc(S(=O)(=O)NC(=O)Nc3c4c(cc5c3CCC5)CCC4)cc21 (stereo not shown) [Compound 24, N-((1,2,3,5,6,7-hexahydro-s-indacen-4-yl)carbamoyl)-4-hydroxy-4-methyl-5,6,7,8-tetrahydro-4H-cyclohepta[b]furan-2-sulfonamide]"
3,> 7.00,"O=C(Nc1c2c(c(Br)c3c1CCC3)CCC2)NS(=O)(=O)c1cc2c(o1)CCCC2O (stereo not shown) [Compound 39, N-((8-bromo-1,2,3,5,6,7-hexahydro-s-indacen-4-yl)carbamoyl)-4-hydroxy-4,5,6,7-tetrahydrobenzofuran-2-sulfonamide]"
4,> 7.00,"CC1(O)CCCc2oc(S(=O)(=O)NC(=O)Nc3c4c(c(Br)c5c3CCC5)CCC4)cc21 (stereo not shown) [Compound 40, N-((8-bromo-1,2,3,5,6,7-hexahydro-s-indacen-4-yl)carbamoyl)-4-hydroxy-4-methyl-4,5,6,7-tetrahydrobenzofuran-2-sulfonamide]"
5,6.00 to 7.00,"CC(=O)NC1CCCc2oc(S(=O)(=O)NC(=O)Nc3c4c(c(Br)c5c3CCC5)CCC4)cc21 (stereo not shown) [Compound 42, N-(2-(N-((8-bromo-1,2,3,5,6,7-hexahydro-s-indacen-4-yl)carbamoyl)sulfamoyl)-4,5,6,7-tetrahydrobenzofuran-4-yl)acetamide]"
6,> 7.00,"O=C(Nc1c2c(c(Cl)c3c1CCC3)CCC2)NS(=O)(=O)c1cc2c(o1)CCCC2O (stereo not shown) [Compound 43, N-((8-chloro-1,2,3,5,6,7-hexahydro-s-indacen-4-yl)carbamoyl)-4-hydroxy-4,5,6,7-tetrahydrobenzofuran-2-sulfonamide]"
7,> 7.00,"CC1(O)CCCc2oc(S(=O)(=O)NC(=O)Nc3c4c(c(Cl)c5c3CCC5)CCC4)cc21 (stereo not shown) [Compound 44, N-((8-chloro-1,2,3,5,6,7-hexahydro-s-indacen-4-yl)carbamoyl)-4-hydroxy-4-methyl-4,5,6,7-tetrahydrobenzofuran-2-sulfonamide]"
8,> 7.00,"CCC1(O)CCCc2oc(S(=O)(=O)NC(=O)Nc3c4c(cc5c3CCC5)CCC4)cc21 (stereo not shown) [Compound 45, 4-ethyl-N-((1,2,3,5,6,7-hexahydro-s-indacen-4-yl)carbamoyl)-4-hydroxy-4,5,6,7-tetrahydrobenzofuran-2-sulfonamide]"
9,> 7.00,"O=C(Nc1c2c(c(F)c3c1CCC3)CCC2)NS(=O)(=O)c1cc2c(o1)CCCC2O (stereo not shown) [Compound 46, N-((8-fluoro-1,2,3,5,6,7-hexahydro-s-indacen-4-yl)carbamoyl)-4-hydroxy-4,5,6,7-tetrahydrobenzofuran-2-sulfonamide]"
10,> 7.00,"CC1(O)CCCc2oc(S(=O)(=O)NC(=O)Nc3c4c(c(F)c5c3CCC5)CCC4)cc21 (stereo not shown) [Compound 47, N-((8-fluoro-1,2,3,5,6,7-hexahydro-s-indacen-4-yl)carbamoyl)-4-hydroxy-4-methyl-4,5,6,7-tetrahydrobenzofuran-2-sulfonamide]"

# More lines, now with the values behind:
row,SMILES,pIC50
1,O=C(Nc1c2c(cc3c1CCC3)CCC2)NS(=O)(=O)c1cc2c(o1)CCCC2=O [Compound 6],6.00 to 7.00
2,"O=C(Nc1c2c(cc3c1CCC3)CCC2)NS(=O)(=O)c1cc2c(o1)CCCC2O (stereo not shown) [Compound 8, N-((1,2,3,5,6,7-hexahydro-s-indacen-4-yl)carbamoyl)-4-hydroxy-4,5,6,7-tetrahydrobenzofuran-2-sulfonamide]",> 7.00
3,"CC1(C)CCc2oc(S(=O)(=O)NC(=O)Nc3c4c(cc5c3CCC5)CCC4)cc2C1(C)O (stereo not shown) [Compound 11, N-((1,2,3,5,6,7-hexahydro-s-indacen-4-yl)carbamoyl)-4-hydroxy-4,5,5-trimethyl-4,5,6,7-tetrahydrobenzofuran-2-sulfonamide]",> 7.00
4,"CC1(C)CCC(C)(O)c2cc(S(=O)(=O)NC(=O)Nc3c4c(cc5c3CCC5)CCC4)oc21 (stereo not shown) [Compound 12, N-((1,2,3,5,6,7-hexahydro-s-indacen-4-yl)carbamoyl)-4-hydroxy-4,7,7-trimethyl-4,5,6,7-tetrahydrobenzofuran-2-sulfonamide]",> 7.00
5,"CC1(C)CCc2oc(S(=O)(=O)NC(=O)Nc3c4c(cc5c3CCC5)CCC4)cc2C1=O [Compound 13, N-((1,2,3,5,6,7-hexahydro-s-indacen-4-yl)carbamoyl)-5,5-dimethyl-4-oxo-4,5,6,7-tetrahydrobenzofuran-2-sulfonamide]",6.00 to 7.00
6,"CC1(C)CCc2oc(S(=O)(=O)NC(=O)Nc3c4c(cc5c3CCC5)CCC4)cc2C1O (stereo not shown) [Compound 14, N-((1,2,3,5,6,7-hexahydro-s-indacen-4-yl)carbamoyl)-4-hydroxy-5,5-dimethyl-4,5,6,7-tetrahydrobenzofuran-2-sulfonamide]",> 7.00
7,"CC1Cc2oc(S(=O)(=O)NC(=O)Nc3c4c(cc5c3CCC5)CCC4)cc2C(C)(O)C1 (stereo not shown) [Compound 16, N-((1,2,3,5,6,7-hexahydro-s-indacen-4-yl)carbamoyl)-4-hydroxy-4,6-dimethyl-4,5,6,7-tetrahydrobenzofuran-2-sulfonamide]",> 7.00
8,"CC1CC(=O)c2cc(S(=O)(=O)NC(=O)Nc3c4c(cc5c3CCC5)CCC4)oc2C1 (stereo not shown) [Compound 17, N-((1,2,3,5,6,7-hexahydro-s-indacen-4-yl)carbamoyl)-6-methyl-4-oxo-4,5,6,7-tetrahydrobenzofuran-2-sulfonamide]",6.00 to 7.00
9,"CC1Cc2oc(S(=O)(=O)NC(=O)Nc3c4c(cc5c3CCC5)CCC4)cc2C(O)C1 (stereo not shown) [Compound 18, N-((1,2,3,5,6,7-hexahydro-s-indacen-4-yl)carbamoyl)-4-hydroxy-6-methyl-4,5,6,7-tetrahydrobenzofuran-2-sulfonamide]",6.00 to 7.00
10,"CC1(C)Cc2oc(S(=O)(=O)NC(=O)Nc3c4c(cc5c3CCC5)CCC4)cc2C(C)(O)C1 (stereo not shown) [Compound 20, N-((1,2,3,5,6,7-hexahydro-s-indacen-4-yl)carbamoyl)-4-hydroxy-4,6,6-trimethyl-4,5,6,7-tetrahydrobenzofuran-2-sulfonamide]",> 7.00
11,"CC1(C)CC(=O)c2cc(S(=O)(=O)NC(=O)Nc3c4c(cc5c3CCC5)CCC4)oc2C1 [Compound 21, N-((1,2,3,5,6,7-hexahydro-s-indacen-4-yl)carbamoyl)-6,6-dimethyl-4-oxo-4,5,6,7-tetrahydrobenzofuran-2-sulfonamide]",6.00 to 7.00
12,"CC1(C)Cc2oc(S(=O)(=O)NC(=O)Nc3c4c(cc5c3CCC5)CCC4)cc2C(O)C1 (stereo not shown) [Compound 22, N-((1,2,3,5,6,7-hexahydro-s-indacen-4-yl)carbamoyl)-4-hydroxy-6,6-dimethyl-4,5,6,7-tetrahydrobenzofuran-2-sulfonamide]",> 7.00
13,"O=C(Nc1c2c(cc3c1CCC3)CCC2)NS(=O)(=O)c1cc2c(o1)CCCCC2O (stereo not shown) [Compound 25, N-((1,2,3,5,6,7-hexahydro-s-indacen-4-yl)carbamoyl)-4-hydroxy-5,6,7,8-tetrahydro-4H-cyclohepta[b]furan-2-sulfonamide]",> 7.00
14,"CC(C)C1Cc2oc(S(=O)(=O)NC(=O)Nc3c4c(cc5c3CCC5)CCC4)cc2C(C)(O)C1 (stereo not shown) [Compound 27, N-((1,2,3,5,6,7-hexahydro-s-indacen-4-yl)carbamoyl)-4-hydroxy-6-isopropyl-4-methyl-4,5,6,7-tetrahydrobenzofuran-2-sulfonamide]",> 7.00
15,"CC(C)C1Cc2oc(S(=O)(=O)NC(=O)Nc3c4c(cc5c3CCC5)CCC4)cc2C(O)C1 (stereo not shown) [Compound 28, N-((1,2,3,5,6,7-hexahydro-s-indacen-4-yl)carbamoyl)-4-hydroxy-6-isopropyl-4,5,6,7-tetrahydrobenzofuran-2-sulfonamide]",6.00 to 7.00
16,"O=C(Nc1c2c(cc3c1CCC3)CCC2)NS(=O)(=O)c1cc2c(o1)CCCc1c[nH]nc1-2 [Compound 33, N-((1,2,3,5,6,7-hexahydro-s-indacen-4-yl)carbamoyl)-2,4,5,6-tetrahydrofuro[2′,3′:6,7]cyclohepta[1,2-c]pyrazole-8-sulfonamide]",6.00 to 7.00
17,"O=C(Nc1c2c(cc3c1CCC3)CCC2)NS(=O)(=O)c1cc2c(o1)CCC/C2=N\O [Compound 35, (E)-N-((1,2,3,5,6,7-hexahydro-s-indacen-4-yl)carbamoyl)-4-(hydroxyimino)-4,5,6,7-tetrahydrobenzofuran-2-sulfonamide]",> 7.00
18,"O=C(Nc1c2c(cc3c1CCC3)CCC2)NS(=O)(=O)c1cc2c(o1)CCC/C2=N/O [Compound 36, (Z)—N-((1,2,3,5,6,7-hexahydro-s-indacen-4-yl)carbamoyl)-4-(hydroxyimino)-4,5,6,7-tetrahydrobenzofuran-2-sulfonamide]",> 7.00
19,"O=C(Nc1c2c(cc3c1CCC3)CCC2)NS(=O)(=O)c1cc2c(o1)CCCNC2=O [Compound 38, N-((1,2,3,5,6,7-hexahydro-s-indacen-4-yl)carbamoyl)-4-oxo-5,6,7,8-tetrahydro-4H-furo[3,2-c]azepine-2-sulfonamide]",6.00 to 7.00
20,"CO/N=C1/CCCc2oc(S(=O)(=O)NC(=O)Nc3c4c(cc5c3CCC5)CCC4)cc21 [Compound 41, (Z)-N-((1,2,3,5,6,7-hexahydro-s-indacen-4-yl)carbamoyl)-4-(methoxyimino)-4,5,6,7-tetrahydrobenzofuran-2-sulfonamide]",6.00 to 7.00
21,"CC1CC(=NO)c2cc(S(=O)(=O)NC(=O)Nc3c4c(cc5c3CCC5)CCC4)oc2C1 (stereo not shown) [Compound 48, N-((1,2,3,5,6,7-hexahydro-s-indacen-4-yl)carbamoyl)-4-(hydroxyimino)-6-methyl-4,5,6,7-tetrahydrobenzofuran-2-sulfonamide]",6.00 to 7.00
